Source: US20120015988A1, “Sulfone Compounds Which Modulate The CB2 Receptor” (BOEHRINGER INGELHEIM INTERNATIONAL GMBH, priority 2008, published 2012)

Biological target: T1, human CB2R (Homo sapiens, UniProt P34972)
T1 construct: host or cells: CHO cells
Experiment: CB2R mediated modulation of cAMP synthesis
Format: cell-based
Details: CHO cells expressing human CB2R; concentration at which 50% of the forskolin-stimulated cAMP synthesis was inhibited; 100% defined by 1 uM CP55940; read-out: CB2 EC50
Protocol: B. CB2R Mediated Modulation of Camp Synthesis:
Compounds of the invention were evaluated for their CB2 agonist or inverse agonistic activity in accordance with the following experimental method.
CHO cells expressing human CB2R (Euroscreen) were plated at a density of 5000 cells per well in 384 well plates and incubated overnight at 37° C. After removing the media, the cells were treated with test compounds diluted in stimulation buffer containing 1 mM IBMX, 0.25% BSA and 10 uM Forskolin. The assay was incubated for 30 minutes at 37° C. Cells were lysed and the cAMP concentration was measured using DiscoverX-XS cAMP kit, following the manufacturer's protocol. In this setting, agonists will decrease forskolin induced production of cAMP while inverse agonists will further increase forskolin induced production of cAMP. EC50 of agonists were calculated as follows. The maximal amount of cAMP produced by forskolin compared to the level of cAMP inhibited by 1 uM CP55940 is defined as 100%. The EC50 value of each test compound was determined as the concentration at which 50% of the forskolin-stimulated cAMP synthesis was inhibited. Data was analyzed using a four-parameter logistic model. (Model 205 of XLfit 4.0).

T1 sequence (P34972 whole entry): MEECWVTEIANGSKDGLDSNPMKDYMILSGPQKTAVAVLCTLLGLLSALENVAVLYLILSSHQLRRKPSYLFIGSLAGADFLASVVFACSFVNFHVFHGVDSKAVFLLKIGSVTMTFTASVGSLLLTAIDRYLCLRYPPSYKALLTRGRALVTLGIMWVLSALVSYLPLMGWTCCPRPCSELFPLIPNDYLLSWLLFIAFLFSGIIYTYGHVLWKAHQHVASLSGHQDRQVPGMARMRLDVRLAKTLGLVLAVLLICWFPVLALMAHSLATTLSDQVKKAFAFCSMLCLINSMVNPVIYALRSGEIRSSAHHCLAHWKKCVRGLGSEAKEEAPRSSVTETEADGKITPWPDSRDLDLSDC

SMILES | EC50 [nM]
Cn1nc(C(C)(C)C)cc1-c1coc(C(C)(C)S(=O)(=O)c2ccc(Cl)cc2)n1 [Example 1, 4-(5-tert-butyl-2-methyl-2H-pyrazol-3-yl)-2-[1-(4-chloro-benzenesulfonyl)-1-methyl-ethyl]-oxazole] | 0.92
Cn1nc(C(C)(C)C)cc1-c1coc(C(C)(C)S(=O)(=O)c2ccc(F)cc2)n1 [Example 2, 4-(5-tert-butyl-2-methyl-2H-pyrazol-3-yl)-2-[1-(4-fluoro-benzenesulfonyl)-1-methyl-ethyl]-oxazole] | 0.35
Cn1nc(C(C)(C)C)cc1-c1coc(C(C)(C)S(=O)(=O)c2ccc(Cl)cc2F)n1 [Example 3, 4-(5-tert-butyl-2-methyl-2H-pyrazol-3-yl)-2-[1-(4-chloro-2-fluoro-benzenesulfonyl)-1-methyl-ethyl]-oxazole] | 3.9
Cc1ccc(S(=O)(=O)C(C)(C)c2nc(-c3cc(C(C)(C)C)nn3C)co2)cc1 [Example 4, 4-(5-tert-butyl-2-methyl-2H-pyrazol-3-yl)-2-[1-methyl-1-(toluene-4-sulfonyl)-ethyl]-oxazole] | 12
Cn1nc(C(C)(C)C)cc1-c1coc(C(C)(C)S(=O)(=O)CC2CCOCC2)n1 [Example 5, 4-(5-tert-butyl-2-methyl-2H-pyrazol-3-yl)-2-[1-methyl-1-(tetrahydro-pyran-4-ylmethanesulfonyl)-ethyl]-oxazole] | 145
Cn1nc(C(C)(C)C)cc1-c1coc(C(C)(C)S(=O)(=O)C2CCCCC2)n1 [Example 6, 4-(5-tert-butyl-2-methyl-2H-pyrazol-3-yl)-2-(1-cyclohexanesulfonyl-1-methyl-ethyl)-oxazole] | 371
CC(C)(C)c1cc(-c2coc(C(C)(C)S(=O)(=O)c3ccc(Cl)cc3)n2)no1 [Example 7, 5-tert-butyl-3-{2-[1-(4-chloro-benzenesulfonyl)-1-methyl-ethyl]-oxazol-4-yl}-isoxazole] | 0.9
Cn1nc(C(C)(C)C)cc1-c1cnc(C(C)(C)S(=O)(=O)c2ccc(Cl)cc2)o1 [Example 8, 5-(5-tert-butyl-2-methyl-2H-pyrazol-3-yl)-2-[1-(4-chloro-benzenesulfonyl)-1-methyl-ethyl]-oxazole] | 22
Cn1nc(C(C)(C)C)cc1-c1cnc(C(C)(C)S(=O)(=O)c2ccc(F)cc2)o1 [Example 9, 5-(5-tert-butyl-2-methyl-2H-pyrazol-3-yl)-2-[1-(4-fluoro-benzenesulfonyl)-1-methyl-ethyl]-oxazole] | 5.8
Cn1nc(C(C)(C)C)cc1-c1nnc(C(C)(C)S(=O)(=O)c2ccc(Cl)cc2)[nH]1 [Example 12, 3-(5-tert-butyl-2-methyl-2H-pyrazol-3-yl)-5-[1-(4-chloro-benzenesulfonyl)-1-methyl-ethyl]-4H-[1,2,4]triazole] | 12
CC(C)(C)c1cc(-c2nnc(C(C)(C)S(=O)(=O)CC3CCOCC3)[nH]2)on1 [Example 14, 3-(3-tert-butyl-isoxazol-5-yl)-5-[1-methyl-1-(tetrahydro-pyran-4-ylmethanesulfonyl)-ethyl]-4H-[1,2,4]triazole] | 159
CC(C)(c1nc(C2CCCCC2)no1)S(=O)(=O)c1ccc(C(F)(F)F)cc1 [Example 16, 3-cyclohexyl-5-[1-methyl-1-(4-trifluoromethyl-benzenesulfonyl)-ethyl]-[1,2,4]oxadiazole] | 12
Cn1nc(C(C)(C)C)cc1-c1nc(C(C)(C)S(=O)(=O)c2ccc(Cl)cc2)no1 [Example 18, 5-(5-tert-butyl-2-methyl-2H-pyrazol-3-yl)-3-[1-(4-chloro-benzenesulfonyl)-1-methyl-ethyl]-[1,2,4]oxadiazole] | 2.7
Cn1nc(C(C)(C)C)cc1-c1nc(C(C)(C)S(=O)(=O)CC2CCOCC2)no1 [Example 19, 5-(5-tert-butyl-2-methyl-2H-pyrazol-3-yl)-3-[1-methyl-1-(tetrahydro-pyran-4-ylmethanesulfonyl)-ethyl]-[1,2,4]oxadiazole] | 9.2
CC(C)(C)c1cc(-c2nnc(C(C)(C)S(=O)(=O)c3ccc(Cl)cc3)o2)on1 [Example 22, 2-(3-tert-butyl-isoxazol-5-yl)-5-[1-(4-chloro-benzenesulfonyl)-1-methyl-ethyl]-[1,3,4]oxadiazole] | 5.3
CC(C)(C)c1cc(-c2nnc(C(C)(C)S(=O)(=O)CC3CCOCC3)o2)on1 [Example 24, 2-(3-tert-butyl-isoxazol-5-yl)-5-[1-methyl-1-(tetrahydro-pyran-4-ylmethanesulfonyl)-ethyl]-[1,3,4]oxadiazole] | 48
CC(C)(C)c1cc(-c2nnc(C(C)(C)S(=O)(=O)c3ccc(Cl)cc3)o2)no1 [Example 25, 2-(5-tert-butyl-isoxazol-3-yl)-5-[1-(4-chloro-benzenesulfonyl)-1-methyl-ethyl]-[1,3,4]oxadiazole] | 6.9

SMILES | EC50 [nM]
Cn1nc(C(C)(C)C)cc1-c1nnc(C(C)(C)S(=O)(=O)c2ccc(Cl)cc2)o1 [Example 26, 2-(5-tert-butyl-2-methyl-2H-pyrazol-3-yl)-5-[1-(4-chloro-benzenesulfonyl)-1-methyl-ethyl]-[1,3,4]oxadiazole] | 9
CC(C)(C)c1cc(-c2nnc(C(C)(C)S(=O)(=O)c3ccc(F)cc3)o2)no1 [Example 27, 2-(5-tert-butyl-isoxazol-3-yl)-5-[1-(4-fluoro-benzenesulfonyl)-1-methyl-ethyl]-[1,3,4]oxadiazole] | 35
Cn1nc(C(C)(C)C)cc1-c1nnc(C(C)(C)S(=O)(=O)c2ccc(F)cc2)o1 [Example 28, 2-(5-tert-butyl-2-methyl-2H-pyrazol-3-yl)-5-[1-(4-fluoro-benzenesulfonyl)-1-methyl-ethyl]-[1,3,4]oxadiazole] | 16
CC(C)(C)c1cc(-c2nnc(C(C)(C)S(=O)(=O)C3CCOCC3)o2)on1 [Example 29, 2-(3-tert-butyl-isoxazol-5-yl)-5-[1-methyl-1-(tetrahydro-pyran-4-sulfonyl)-ethyl]-[1,3,4]oxadiazole] | 27
CC(C)(C)c1cc(-c2nnc(C(C)(C)S(=O)(=O)Cc3ccc(F)cc3)o2)on1 [Example 31, 2-(3-tert-butyl-isoxazol-5-yl)-5-[1-(4-fluoro-phenylmethanesulfonyl)-1-methyl-ethyl]-[1,3,4]oxadiazole] | 162
Cn1nc(C(C)(C)C)cc1-c1nnc(C2(S(=O)(=O)c3ccc(Cl)cc3)CC2)o1 [Example 32, 2-(5-tert-butyl-2-methyl-2H-pyrazol-3-yl)-5-[1-(4-chloro-benzenesulfonyl)-cyclopropyl]-[1,3,4]oxadiazole] | 3.7
CC(C)(C)c1cc(-c2noc(C(C)(C)S(=O)(=O)c3ccc(F)cc3)n2)on1 [Example 34, 3-(3-tert-butyl-isoxazol-5-yl)-5-[1-(4-fluoro-benzenesulfonyl)-1-methyl-ethyl]-[1,2,4]oxadiazole] | 1.8
CC(C)(C)c1cc(-c2noc(C(C)(C)S(=O)(=O)c3ccc(C(F)(F)F)cc3)n2)on1 [Example 35, 3-(3-tert-butyl-isoxazol-5-yl)-5-[1-methyl-1-(4-trifluoromethyl-benzenesulfonyl)-ethyl]-[1,2,4]oxadiazole] | 5.9
CC(C)(C)c1cc(-c2noc(C(C)(C)S(=O)(=O)CC3CCOCC3)n2)on1 [Example 36, 3-(3-tert-butyl-isoxazol-5-yl)-5-[1-methyl-1-(tetrahydro-pyran-4-ylmethanesulfonyl)-ethyl]-[1,2,4]oxadiazole] | 15
CC(C)(C)c1cc(-c2nc(C(C)(C)S(=O)(=O)c3ccc(F)cc3)no2)on1 [Example 37, 5-(3-tert-butyl-isoxazol-5-yl)-3-[1-(4-fluoro-benzenesulfonyl)-1-methyl-ethyl]-[1,2,4]oxadiazole] | 1
CC(C)(C)c1cc(-c2nc(C(C)(C)S(=O)(=O)CC3CCOCC3)no2)on1 [Example 38, 5-(3-tert-butyl-isoxazol-5-yl)-3-[1-methyl-1-(tetrahydro-pyran-4-ylmethanesulfonyl)-ethyl]-[1,2,4]oxadiazole] | 210
CC(C)(C)c1cc(-c2nnc(C(C)(C)S(=O)(=O)c3ccc(F)cc3)s2)on1 [Example 39, 2-(3-tert-butyl-isoxazol-5-yl)-5-[1-(4-fluoro-benzenesulfonyl)-1-methyl-ethyl]-[1,3,4]thiadiazole] | 6.7
CC(C)(C)c1cc(-c2nnc(C(C)(C)S(=O)(=O)c3ccc(F)cc3)s2)no1 [Example 40, 2-(5-tert-butyl-isoxazol-3-yl)-5-[1-(4-fluoro-benzenesulfonyl)-1-methyl-ethyl]-[1,3,4]thiadiazole] | 17
Cn1nc(C(C)(C)C)cc1-c1nnc(C(C)(C)S(=O)(=O)c2ccc(F)cc2)s1 [Example 41, 2-(5-tert-butyl-2-methyl-2H-pyrazol-3-yl)-5-[1-(4-fluoro-benzenesulfonyl)-1-methyl-ethyl]-[1,3,4]thiadiazole] | 2.5
Cn1nc(C(C)(C)C)cc1-c1nnc(C(C)(C)S(=O)(=O)C2CCOCC2)s1 [Example 42, 2-(5-tert-butyl-2-methyl-2H-pyrazol-3-yl)-5-[1-methyl-1-(tetrahydro-pyran-4-sulfonyl)-ethyl]-[1,3,4]thiadiazole] | 117
CC(C)(CO)c1cc(-c2nnc(C(C)(C)S(=O)(=O)c3ccc(F)cc3)s2)on1 [Example 43, 2-(5-{5-[1-(4-fluoro-benzenesulfonyl)-1-methyl-ethyl]-[1,3,4]thiadiazol-2-yl}-isoxazol-3-yl)-2-methyl-propan-1-ol] | 175
